Data from patent publication US8975398B2, “NAMPT inhibitors” (AbbVie Inc., priority 2012, dated 2015).

System: PC3 cells
Experiment: NAMPT Cell Proliferation Assay (Cell Titer Glo; also performed in the presence of 0.3 mM nicotinamide mononucleotide)
Type: cell-based
Settings: Homo sapiens, PC-3, 120 h, 5 days incubation, cell viability by Cell Titer Glo
Procedure: NAMPT Cell Proliferation Assay
PC3 cells were seeded in 96-well black plates (Corning #3904) at 500 cells/well in 90 μl of RPMI media containing 10% heat-inactivated FBS and incubated overnight at 37° C. and 5% CO2 to allow cells to attach to wells. The following day, test compounds were serially diluted in neat DMSO to 1000× final concentrations prior to dilution with RPMI media to 10× and 1% DMSO. Ten μL of the 10× compounds were then transferred to wells containing cells to produce a dose response of 10-fold dilutions from 10 μM to 1×10^−5 μM. Cells were incubated for 5 days at 37° C. and 5% CO2, then cell viability was measured using Cell Titer Glo reagent (Promega #G7571). Percent inhibition values were calculated and fitted to a sigmoidal dose response curves using Assay Explorer software to determine IC50s.

Row | Structure (SMILES) | IC50 [nM]
1 | O=C(Nc1ccc(C2CCN(C(=O)c3ccccc3F)CC2)nc1)C1CN(c2cccnn2)C1 [Example 914, N-{6-[1-(2-fluorobenzoyl)piperidin-4-yl]pyridin-3-yl}-1-(pyridazin-3-yl)azetidine-3-carboxamide] | 2.7
2 | Cc1nnccc1N1CC(C(=O)Nc2ccc(C3CCN(C(=O)c4ccccc4)CC3)cc2)C1 [Example 908, N-[4-(1-benzoylpiperidin-4-yl)phenyl]-1-(3-methylpyridazin-4-yl)azetidine-3-carboxamide] | 92.5
3 | O=C(Nc1ccc(C2CCN(C(=O)c3cccc(F)c3)CC2)c(F)c1)C1CN(c2cccnn2)C1 [Example 879, N-{3-fluoro-4-[1-(3-fluorobenzoyl)piperidin-4-yl]phenyl}-1-(pyridazin-3-yl)azetidine-3-carboxamide] | 5.83
4 | CCC(C)CC(=O)N1CCC(Cc2ccc(NC(=O)C3CN(c4cccnn4)C3)cc2)CC1 (centres unmarked) [Example 964, N-(4-{[1-(3-methylpentanoyl)piperidin-4-yl]methyl}phenyl)-1-(pyridazin-3-yl)azetidine-3-carboxamide] | 1.84
5 | CC1CC1NC(=O)c1ccc(NC(=O)C2CN(c3cccnn3)C2)cc1 (centres unmarked) [Example 991, N-{4-[(2-methylcyclopropyl)carbamoyl]phenyl}-1-(pyridazin-3-yl)azetidine-3-carboxamide] | 760
6 | Cc1ccc(C(=O)N2CCC(Cc3ccc(NC(=O)C4CN(c5cccnn5)C4)cc3)CC2)cn1 [Example 939, N-[4-({1-[(6-methylpyridin-3-yl)carbonyl]piperidin-4-yl}methyl)phenyl]-1-(pyridazin-3-yl)azetidine-3-carboxamide] | 2.96
7 | CC1(C)CC(NC(=O)c2ccc(NC(=O)C3CN(c4cccnn4)C3)cc2)CCO1 (centres unmarked) [Example 980, N-{4-[(2,2-dimethyltetrahydro-2H-pyran-4-yl)carbamoyl]phenyl}-1-(pyridazin-3-yl)azetidine-3-carboxamide] | 82.2
8 | O=C(NC1CCOCC1)c1ccc(NC(=O)C2CN(c3cccnn3)C2)cc1 [Example 1002, 1-(pyridazin-3-yl)-N-[4-(tetrahydro-2H-pyran-4-ylcarbamoyl)phenyl]azetidine-3-carboxamide] | 911
9 | C[C@@H](NC(=O)c1ccc(NC(=O)C2CN(c3cccnn3)C2)cc1)C1CC1 [Example 985, N-(4-{[(1R)-1-cyclopropylethyl]carbamoyl}phenyl)-1-(pyridazin-3-yl)azetidine-3-carboxamide] | 635
10 | CCOC(=O)c1cc(-c2ccc(NC(=O)C3CN(c4cccnn4)C3)cc2)n(-c2ccccc2)n1 [Example 913, ethyl 1-phenyl-5-[4-({[1-(pyridazin-3-yl)azetidin-3-yl]carbonyl}amino)phenyl]-1H-pyrazole-3-carboxylate] | 66.3
11 | O=C(Nc1ccc(CC2CCN(C(=O)C3CCCO3)CC2)cc1)C1CN(c2cccnn2)C1 (centres unmarked) [Example 944, 1-(pyridazin-3-yl)-N-(4-{[1-(tetrahydrofuran-2-ylcarbonyl)piperidin-4-yl]methyl}phenyl)azetidine-3-carboxamide] | 7.14
12 | CC(C)(C)Cn1cc(-c2ccc(NC(=O)C3CN(c4ccc(Cl)nn4)C3)cc2)cn1 [Example 875, 1-(6-chloropyridazin-3-yl)-N-{4-[1-(2,2-dimethylpropyl)-1H-pyrazol-4-yl]phenyl}azetidine-3-carboxamide] | > 10000
13 | O=C(Nc1ccc(CC2CCN(C(=O)CCC(F)(F)F)CC2)cc1)C1CN(c2cccnn2)C1 [Example 900, 1-(pyridazin-3-yl)-N-(4-{[1-(4,4,4-trifluorobutanoyl)piperidin-4-yl]methyl}phenyl)azetidine-3-carboxamide] | 2.24
14 | CCCCCC(=O)N1CCC(Cc2ccc(NC(=O)C3CN(c4cccnn4)C3)cc2)CC1 [Example 948, N-{4-[(1-hexanoylpiperidin-4-yl)methyl]phenyl}-1-(pyridazin-3-yl)azetidine-3-carboxamide] | 2.26
15 | CC(C)(C)OC(=O)N1CCC(n2cc(NC(=O)C3CN(c4cccnn4)C3)cn2)CC1 [Example 925, tert-butyl 4-[4-({[1-(pyridazin-3-yl)azetidin-3-yl]carbonyl}amino)-1H-pyrazol-1-yl]piperidine-1-carboxylate] | 10.1
16 | O=C(NC[C@@H]1CCCO1)c1ccc(NC(=O)C2CN(c3cccnn3)C2)cc1 [Example 1000, 1-(pyridazin-3-yl)-N-(4-{[(2S)-tetrahydrofuran-2-ylmethyl]carbamoyl}phenyl)azetidine-3-carboxamide] | 77

More lines, in order of falling IC50, values ahead:

Row | IC50 [nM] | Structure (SMILES)
17 | 7270 | O=C(N[C@H]1CCOC1)c1ccc(NC(=O)C2CN(c3cccnn3)C2)cc1 [Example 1020, 1-(pyridazin-3-yl)-N-{4-[(3S)-tetrahydrofuran-3-ylcarbamoyl]phenyl}azetidine-3-carboxamide]
18 | 752 | Cc1ccc(N2CC[C@H](C(=O)Nc3ccc(C4CCN(C(=O)C(C)(C)C)CC4)cc3)C2)nn1 [Example 894, (3S)—N-{4-[1-(2,2-dimethylpropanoyl)piperidin-4-yl]phenyl}-1-(6-methylpyridazin-3-yl)pyrrolidine-3-carboxamide]
19 | 675 | CC1(Cn2cc(-c3ccc(NC(=O)C4CN(c5cccnn5)C4)cc3)cn2)CCNCC1 [Example 873, N-(4-{1-[(4-methylpiperidin-4-yl)methyl]-1H-pyrazol-4-yl}phenyl)-1-(pyridazin-3-yl)azetidine-3-carboxamide]
20 | 13.3 | Cc1ccc(N2CC(C(=O)Nc3ccc(-c4cnn(CC5(C)CCN(C6COC6)CC5)c4)cc3)C2)nn1 [Example 905, N-[4-(1-{[4-methyl-1-(oxetan-3-yl)piperidin-4-yl]methyl}-1H-pyrazol-4-yl)phenyl]-1-(6-methylpyridazin-3-yl)azetidine-3-carboxamide]
21 | 8.75 | O=C(Nc1ccc(CC2CCN(C(=O)c3ccn[nH]3)CC2)cc1)C1CN(c2cccnn2)C1 [Example 938, N-(4-{[1-(1H-pyrazol-5-ylcarbonyl)piperidin-4-yl]methyl}phenyl)-1-(pyridazin-3-yl)azetidine-3-carboxamide]
22 | 6.4 | O=C(Nc1ccc(CC2CCN(C(=O)CC3CC3)CC2)cc1)C1CN(c2cccnn2)C1 [Example 956, N-(4-{[1-(cyclopropylacetyl)piperidin-4-yl]methyl}phenyl)-1-(pyridazin-3-yl)azetidine-3-carboxamide]
23 | 3.17 | CC1CC1C(=O)N1CCC(Cc2ccc(NC(=O)C3CN(c4cccnn4)C3)cc2)CC1 (centres unmarked) [Example 931, N-[4-({1-[(2-methylcyclopropyl)carbonyl]piperidin-4-yl}methyl)phenyl]-1-(pyridazin-3-yl)azetidine-3-carboxamide]
24 | 2.4 | O=C(Nc1ccc(CC2CCN(C(=O)CC3CCCC3)CC2)cc1)C1CN(c2cccnn2)C1 [Example 962, N-(4-{[1-(cyclopentylacetyl)piperidin-4-yl]methyl}phenyl)-1-(pyridazin-3-yl)azetidine-3-carboxamide]
25 | 1.93 | CCC(C)C(=O)N1CCC(Cc2ccc(NC(=O)C3CN(c4cccnn4)C3)cc2)CC1 (centres unmarked) [Example 957, N-(4-{[1-(2-methylbutanoyl)piperidin-4-yl]methyl}phenyl)-1-(pyridazin-3-yl)azetidine-3-carboxamide]
26 | 0.851 | CC(C)(C)CC(=O)N1CCC(Cc2ccc(NC(=O)C3CN(c4cccnn4)C3)cc2)CC1 [Example 898, N-(4-{[1-(3,3-dimethylbutanoyl)piperidin-4-yl]methyl}phenyl)-1-(pyridazin-3-yl)azetidine-3-carboxamide]
